Non-standard residues stand in square brackets, D forms with d. Residues, ends and D or L forms follow the SMILES beside them. *: point of attachment. Cha = N[C@@H](CC1CCCCC1)C(=O)O; For = O=C*
Tests used:
human FPR2 [1] = target: T1, human FPR2 (Homo sapiens, UniProt P25090); test: ERK1/2 phosphorylation, CHO cells expressing FPR2; format: cell-based; conditions: 5 min, mean ± SEM; for Emax: normalized to 10% FBS; for EC50: read-out: ERK1/2 phosphorylation FPR2 pEC50 (converted)
T1 construct: expressed in transfected cells
T1 sequence (P25090 1-351): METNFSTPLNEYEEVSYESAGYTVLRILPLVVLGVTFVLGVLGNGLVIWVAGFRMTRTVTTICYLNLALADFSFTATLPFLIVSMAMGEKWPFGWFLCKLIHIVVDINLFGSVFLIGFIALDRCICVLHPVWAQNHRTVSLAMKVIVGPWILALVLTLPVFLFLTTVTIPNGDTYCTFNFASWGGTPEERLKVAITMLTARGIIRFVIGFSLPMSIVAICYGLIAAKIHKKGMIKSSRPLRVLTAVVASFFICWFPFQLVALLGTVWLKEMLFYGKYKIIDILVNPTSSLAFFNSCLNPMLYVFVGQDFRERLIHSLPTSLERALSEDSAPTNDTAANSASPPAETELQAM
Protocol: (§1) FlpIn Chinese hamster ovary (CHO) cells stably expressing either the human FPR1 or FPR2. Both of the cell lines were cultured in Dulbecco’s modified eagle medium (DMEM), which contained 10% foetal bovine serum (FBS, JRH Biosciences) and 500 µg/mL of the antibiotic hygromycin-B (Invitrogen Inc). Cells were grown at 37 °C in a humidified incubator containing 5% CO2 as described previously. Cells were seeded into 96-well tissue culture plates (4 × 10^4 cells/well) and after 6–8 h, cells were washed with PBS twice (50 µL/well in each washing step) and then starved by incubating in 90 µL/well of serum-free DMEM overnight at 37 °C in 5% CO2 before assaying for ERK1/2 phosphorylation (pERK1/2) and intracellular Ca^2+ mobilization.
(§2) A time course was used to assess peak pERK1/2 phosphorylation for all the compounds. The positive control of 10% FBS, and serum-free DMEM as vehicle control. […] All the compounds were tested with time points taken at 0, 5, 7, 10, 20, 30.
(§3) For both the time course and concentration-response curves, the stimulation was terminated by the rapid removal of serum-free DMEM with agonists and adding 100 μL/well of SureFire lysis buffer. The detection step was performed according to the manufacturer’s instructions (AlphaScreen detection kit, PerkinElmer Life and Analytical Science)[49]. Data were normalized to the vehicle (serum-free DMEM) and the response elicited by 10% FBS, with nonlinear regression performed using GraphPad Prism 9.0.
(§4) Non-linear regression was performed using GraphPrism 9.0. […] Significance was determined using Student’s unpaired t test, with two-tailed p values of <0.05 considered statistically significant.

human FPR2 [2] = target: T1, human FPR2; test: Calcium mobilization, CHO cells expressing FPR2; format: cell-based; conditions: mean ± SEM; for Emax: normalized to ATP 100 µM, read-out: [Ca2+]i mobilization FPR2 Emax; for EC50: read-out: [Ca2+]i mobilization FPR2 pEC50 (converted)
Protocol: as §1
(§5) For the calcium mobilization assay, the cells were plated and starved in the same manner as the pERK1/2 assay, before washing the cells once in HEPES buffered saline (HBS) solution [150 mM NaCl, 1.3 mM CaCl2, 5 mM KCl, 1 mM MgSO4.7H2O, 1.5 mM NaHCO3, 10 mM HEPES, and 10 mM D-glucose; pH 7.4]. Then the cells were incubated at 37 °C under 5% CO2 condition with HBS containing 0.5% (w/v) bovine serum albumin (BSA), 4 mM probenecid and 1 µM Fluo-8-AM (Abcam) for 1 h. FlexStation three plate reader (Molecular Devices) were used to determine Ca^2+ mobilization. The peak change in fluorescence signal was normalized to the vehicle (HBS solution) and the cellular response mediated by the positive control, adenosine triphosphate (ATP, 100 µM), and fitted with nonlinear regression curve in GraphPad Prism 9.0.
as §4

[3] = tested on: pHrodo Red S. aureus BioParticles phagocytosed by human neutrophils; test: Infection-on-a-chip phagocytosis (pHrodo fluorescence); format: cell-based; conditions: at 2 h
Protocol: For neutrophils used in microfluidic devices, de-identified fresh blood samples (10 mL) were purchased from Research Blood Components where blood samples were obtained from healthy volunteers aged ≥18 years who were not receiving immunosuppressant agents. Additionally, venous blood samples from healthy volunteers were collected by phlebotomy, after receipt of written informed consent, and under approval by the MGH Institutional Review Board (protocol 2008-P-002123). Neutrophils were isolated from whole blood using EasySep direct human neutrophil isolation kit (StemCell Technologies) as per the manufacturer’s instructions.
Use of this microfluidic device for monitoring migration of neutrophils and control of the S. aureus growth in cell culture medium has been outlined in detail previously. Briefly, microfluidic devices were primed with S. aureus (SH1000-GFP, 1 × 10^6/mL) in culture media (Iscove’s Modified Dulbecco’s Medium + 10% Fetal Bovine Serum) by loading the outer chamber and applying vacuum to draw bacteria into the inner chambers. The outer chamber was then washed by pushing 200 µL of media through the device using a pipette, and loaded with neutrophils (5.5 × 10^6/mL, stained with Hoechst 33342 dye, 10 min at 32 μM). Additionally, neutrophil phagocytosis was monitored by using pHrodo Red S. aureus BioParticles® (Life Technologies) in replace of live S. aureus cells. BioParticles were used at a final concentration of 1 × 10^7/mL, which gave 50–100 BioParticles within the microchamber. The concentration of cells were determined by hemocytometer.
Kinetics of neutrophil migration, S. aureus growth and phagocytosis was determined using imaging with an automated Nikon Eclipse TiE inverted wide-field microscope with stage control and perfect focus system run through the Nikon NIS element v4. The biochamber was maintained temperature at 37 °C and CO2 at 5% for the 8 h of the experiment, where images were captured every 5 min for each field of view (FOV), with at least 4 FOV captured per experimental condition. For each experimental condition at least 12 chambers were tracked for neutrophil migration using the FIJI[64] plugin Trackmate[65]. The percentage of neutrophils recruited into the chamber was determined relative to the total number of neutrophils in each FOV divided by the number of chambers visible. Data were averaged and the results from at least 3 donors plotted. The pHrodo or S. aureus GFP fluorescence within the microchamber was calculated by thresholding the image and measuring the area in FIJI[36]. Data were plotted using GraphPad Prism 8 software (GraphPad Software, San Diego, CA, USA).

human FPR1 [4] = target: T2, human FPR1 (Homo sapiens, UniProt P21462); test: Calcium mobilization, CHO cells expressing FPR1; format: cell-based; conditions: mean ± SEM; for EC50: read-out: [Ca2+]i mobilization FPR1 pEC50 (converted); for Emax: normalized to ATP 100 µM, read-out: [Ca2+]i mobilization FPR1 Emax
T2 construct: expressed in transfected cells
T2 sequence (P21462 1-350): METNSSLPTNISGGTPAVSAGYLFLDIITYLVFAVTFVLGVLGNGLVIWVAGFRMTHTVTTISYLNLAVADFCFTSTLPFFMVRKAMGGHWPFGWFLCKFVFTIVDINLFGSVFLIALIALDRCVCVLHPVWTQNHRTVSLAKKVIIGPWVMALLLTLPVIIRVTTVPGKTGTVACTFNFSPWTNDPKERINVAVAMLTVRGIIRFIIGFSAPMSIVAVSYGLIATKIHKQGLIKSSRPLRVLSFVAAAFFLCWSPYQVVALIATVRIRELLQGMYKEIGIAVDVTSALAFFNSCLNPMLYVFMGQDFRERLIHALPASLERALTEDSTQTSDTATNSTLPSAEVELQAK
Protocol: as §1, §5, §4

human FPR1 [5] = target: T2, human FPR1; test: ERK1/2 phosphorylation, CHO cells expressing FPR1; format: cell-based; conditions: 5 min, mean ± SEM; for EC50: read-out: ERK1/2 phosphorylation FPR1 pEC50 (converted); for Emax: normalized to 10% FBS
Protocol: as §1, §2, §3, §4

[6] = target: T3, formyl peptide receptor 1 (FPR1) (human, UniProt P21462 1-350)
T3 sequence (looked up): T2 sequence (P21462 1-350)

[7] = tested on: FPR2 of human neutrophils; test: FPR competition binding assay with RhB-PB10; conditions: 8 µM peptide, 5 min, after RhB-PB10 15 µM 1 h, Bis-Tris pH 6
Protocol: A competition binding assay was performed based modification of the previous method. To determine the interaction of the formylated peptides with FPR2 of human neutrophils the fluorescently labelled FPR2 antagonist RhB-PB10 was used. RhB-PB10 was synthesized by solid-phase peptide synthesis on Wang resin. After initial acylation with Fmoc-L-Arg(Pbf)-OH, peptide elongation was performed using a solution of 20% piperidine for Fmoc removal and DIC/ Oxyma for Fmoc-amino acid or Rhodamine B coupling. After completion of the sequence, the peptide was cleaved from the resin and protecting groups were removed via TFA cleavage. Following concentration, the peptide was precipitated using diethyl ether, collected by centrifugation on a spark-resistant centrifuge and purified using RP-HPLC.
RhB-PB10 (15 μM) was preincubated with human neutrophils (5 × 10^6 neutrophils/mL) in Bis-Tris buffer pH 6 for 1 h. […] Any RhB-PB10 that was competed off by the peptides was then removed by washing in Bis-Tris buffer. Rhodamine B fluorescence levels of each sample were determined using microplate reader (Clariostar plate reader, BMG) with ex 550 nm, em 585 nm.

Row | Molecule | Emax (human FPR2 [1]) | Emax (human FPR2 [2]) | area of pHrodo fluorescence per neutrophil recruited into the microchamber ([3]; donor 2) | area of pHrodo fluorescence per neutrophil recruited into the microchamber ([3]; donor column 1) | area of pHrodo fluorescence per neutrophil recruited into the microchamber ([3]; donor column 3) | area of pHrodo fluorescence per neutrophil recruited into the microchamber ([3]; donor column 4) | Emax (human FPR1 [4]) | Emax (human FPR1 [5]) | other results
1 | CSCC[C@H](NC=O)C(=O)N[C@@H](CC(C)C)C(=O)N[C@@H](Cc1ccccc1)C(=O)O [fMLF, N-formyl-Met-Leu-Phe, reference compound] | 99 ± 27% | 18 ± 4% | – | – | – | – | – | – | –
2 | Van-C(fML-Tyr-G-Tz) [C19] | – | – | 3.5 | 9.2 | 7.8 | 2.6 | – | – | –
3 | CSCC[C@H](NC=O)C(=O)N[C@@H](CC1CCCCC1)C(=O)N[C@@H](Cc1ccccc1)C(=O)NCC(N)=O [FP11, fM-Cha-FG-NH2] (For-M[Cha]FG-NH2) | 81 ± 9% | 43 ± 13% | – | – | – | – | 27 ± 4% | 90 ± 8% | EC50 (human FPR2 [1]): 1860 nM; EC50 (human FPR1 [4]): 9.55 nM; EC50 (human FPR2 [2]): 1320 nM; EC50 (human FPR1 [5]): 2.19 nM
4 | fML-Tyr-G-NH2 [FP12] | – | – | 4.1 | 4.7 | 1.5 | 2.8 | – | – | –
5 | CN[C@H](CC(C)C)C(=O)N[C@H]1C(=O)N[C@@H](CC(N)=O)C(=O)N[C@H]2C(=O)N[C@H]3C(=O)N[C@H](C(=O)N[C@H](C(=O)NCCCn4cc(C[C@H](NC(=O)CNC(=O)[C@H](Cc5ccccc5)NC(=O)[C@H](CC(C)C)NC(=O)[C@H](CCSC)NC=O)C(N)=O)nn4)c4cc(O)cc(O)c4-c4cc3ccc4O)[C@H](O)c3ccc(c(Cl)c3)Oc3cc2cc(c3O[C@@H]2O[C@H](CO)[C@@H](O)[C@H](O)[C@H]2O[C@H]2C[C@](C)(N)[C@H](O)[C@H](C)O2)Oc2ccc(cc2Cl)[C@H]1O [C1, Van-C(fMLFG-Tz)] | 99 ± 9% | 45 ± 10% | – | – | – | – | 34 ± 8% | 77 ± 8% | –
6 | fMChaFG = van (fMChaFG conjugated to the C-terminus of vancomycin) (peptide) | – | – | – | – | – | – | – | – | ERK1/2 phosphorylation at 5 min in CHO cells overexpressing human FPR1, potency of the conjugate against the free peptide (lower potency) [6]: 10 fold; calcium mobilization in CHO cells overexpressing human FPR1, potency of the conjugate against the free peptide (lower potency) [6]: > 90 fold
7 | Van-C(fMLF-Leu-Tz) [C18] | – | – | 4.4 | 7.9 | 2.1 | 1.8 | – | – | –
8 | fMLF-Leu-NH2 [FP19] | – | – | 7.8 | 6.5 | 1.5 | 2.3 | – | – | –
9 | fMIVIL [FPR2 specific agonist (Auspep)] | – | – | – | – | – | – | – | – | RhB-PB10 binding to neutrophils relative to control (=1) ([7]; replicate 1): 0.81; RhB-PB10 binding to neutrophils relative to control (=1) ([7]; replicate 2): 0.79; RhB-PB10 binding to neutrophils relative to control (=1) ([7]; replicate 3): 0.62; RhB-PB10 binding to neutrophils relative to control (=1) ([7]; replicate 4): 0.75; RhB-PB10 binding to neutrophils relative to control (=1) ([7]; replicate 5): 0.7
10 | CSCC[C@H](NC=O)C(=O)N[C@@H](CC(C)C)C(=O)N[C@@H](Cc1ccccc1)C(=O)NCC(N)=O [FP1, fMLFG-NH2] (For-MLFG-NH2) | 82 ± 7% | 34 ± 7% | – | – | – | – | 27 ± 4% | 86 ± 8% | EC50 (human FPR2 [1]): 2880 nM; EC50 (human FPR1 [4]): 6.76 nM; EC50 (human FPR2 [2]): 1350 nM; EC50 (human FPR1 [5]): 2.51 nM
11 | CN[C@H](CC(C)C)C(=O)N[C@H]1C(=O)N[C@@H](CC(N)=O)C(=O)N[C@H]2C(=O)N[C@H]3C(=O)N[C@H](C(=O)N[C@H](C(=O)NCCCn4cc(C[C@H](NC(=O)CNC(=O)[C@H](Cc5ccccc5)NC(=O)[C@H](CC5CCCCC5)NC(=O)[C@H](CCSC)NC=O)C(N)=O)nn4)c4cc(O)cc(O)c4-c4cc3ccc4O)[C@H](O)c3ccc(c(Cl)c3)Oc3cc2cc(c3O[C@@H]2O[C@H](CO)[C@@H](O)[C@H](O)[C@H]2O[C@H]2C[C@](C)(N)[C@H](O)[C@H](C)O2)Oc2ccc(cc2Cl)[C@H]1O [C11, Van-C(fM-Cha-FG-Tz)] | 84 ± 4% | 27 ± 3% | – | – | – | – | 24 ± 3% | 83 ± 3% | –

Source: article PMC8546149, “Antibiotic-chemoattractants enhance neutrophil clearance of Staphylococcus aureus” (Nature Communications, 2021)
